In patent US10647719B2, “Bicyclic compounds as dual ATX/CA inhibitors” (Hoffmann-La Roche Inc., priority 2015, dated 2020):
Like-named read-outs stand apart in the source and are kept apart here.

Experiments:
[1] = molecular target: Human carbonic anhydrase II (hCA-II) (Homo sapiens (Human), UniProt P00918); test: Human carbonic anhydrase-II inhibition assay (absorbance, 4-nitrophenyl acetate substrate); assay type: biochemical
Protocol: Human Carbonic Anhydrase-II Inhibition Assay
Human carbonic anhydrase II (hCA-II) inhibition was measured by an absorbance method using 4-nitrophenyl acetate (4-NPA) as its substrate. 4-NPA can be catalyzed by active hCA II via a zinc-hydroxide mechanism. The nitrophenolate in the products can be ionized to generate a bright yellow anion with high absorbance at 348 to 400 nm, as reported in the literature (Armstrong et al., J. Biol. Chem. 1966, 241, 5137-5149). OD340 nm was chosen for detecting hCA II substrate conversion.
(§1) Assay working solutions were made as follows:
Assay buffer: 50 mM MOPS, 33 mM Na2SO4, 1 mM EDTA, 0.5 mg/ml BSA, pH 7.5;
Enzyme solution: hCA-II (human, full length) stock solution (1.0 mg/mL in 20 mM HEPES, 50 mM NaCl, pH 7.4), diluted to 2133× final concentration in assay buffer;
4-NPA substrate solution: 4-NPA substrate stock solution (250 mM in DMSO, stored at −20° C.), diluted to 50× final concentration in deionized water.
Test compounds (10 mM stock in DMSO, 100 μL) were obtained in […] sample plates (Corning Costar #3655) and diluted to 0.5 mM. Column-wise serial dilutions were made by transferring 20 μL compound solutions to the next column, from column 3 up to 22. After this, 1.2 μL were transferred to 384 well assay plates (Corning Costar #3701). Then 30 μL of 16 nM hCA II solution was added (8 nM final concentration), mixed five times. 30 μL of 4-NPA substrate solution was added (2.5 mM final concentration), mixed five times. Absorbance at 340 nm was then measured immediately as time zero. The assay plates were incubated at room temperature for 1 hour and then measured as time 1 hour (Perkin Elmer EnVision 2103; Filter: Photometric 340; Light intensity 60%; Number of flashes: 10). IC50 values and Ki values were calculated from these readouts.

human ATX = human ATX (Homo sapiens (Human), UniProt Q13822); test: Human ATX enzyme inhibition assay (fluorescence quenching, MR121 substrate); assay type: biochemical
Protocol: Human ATX Enzyme Inhibition Assay
ATX inhibition was measured by a fluorescence quenching assay using a specifically labeled substrate analogue (MR121 substrate). To obtain this MR121 substrate, BOC and TBS protected 6-amino-hexanoic acid (R)-3-({2-[3-(2-{2-[2-(2-amino-ethoxy)-ethoxy]-ethoxy}-ethoxy)-propionylamino]-ethoxy}-hydroxy-phosphoryloxy)-2-hydroxy-propyl ester (Ferguson et al., Org Lett 2006, 8 (10), 2023) was labeled with MR121 fluorophore (CAS 185308-24-1, 1-(3-carboxypropyl)-11-ethyl-1,2,3,4,8,9,10,11-octahydro-dipyrido[3,2-b:2′,3′-i]phenoxazin-13-ium) on the free amine of the ethanolamine side and then, after deprotection, subsequently with tryptophan on the side of the aminohexanoic acid.
as §1
Assay buffer (50 mM Tris-HCl, 140 mM NaCl, 5 mM KCl, 1 mM CaCl2, 1 mM MgCl2, 0.01% Triton-X-100, pH 8.0;
ATX solution: ATX (human His-tagged) stock solution (1.08 mg/mL in 20 mM bicine, pH 8.5, 0.15 M NaCl, 10% glycerol, 0.3% CHAPS, 0.02% NaN3), diluted to 1.4-2.5× final concentration in assay buffer;
MR121 substrate solution: MR121 substrate stock solution (800 μM MR121 substrate in DMSO), diluted to 2-5× final concentration in assay buffer.
Test compounds (10 mM stock in DMSO, 8 μL) were obtained in 384 well sample plates (Corning Costar #3655) and diluted with 8 μL DMSO. Row-wise serial dilutions were made by transferring 8 μL cpd solution to the next row up to row O. The compound and control solutions were mixed five times and 2 μL were transferred to 384 well assay plates (Corning Costar #3702). Then, 15 μL of 41.7 nM ATX solution was added (30 nM final concentration), mixed five times and then incubated for 15 minutes at 30° C. 10 μL of MR121 substrate solution was added (1 μM final concentration), mixed 30 times and then incubated for 15 minutes at 30° C.

[2] = hCA II 8 nM, 4-NPA 2.5 mM, absorbance 340 nm, room temperature 1 hour, read-out: CA-II IC50
[3] = human His-tagged ATX 30 nM, MR121 substrate 1 μM, 30° C., read-out: ATX IC50

Row | IC50 [1, 2] | IC50 (human ATX; [3]) | IC50 [1] | IC50 (human ATX) | Structure (SMILES)
1 | 9 nM | 5 nM | – | – | NS(=O)(=O)c1ccc(C(=O)N2CC3=C(CN(C(=O)/C=C/c4ccc(OC(F)(F)F)cc4)C3)C2)c(F)c1 [Example 3.00, 3-Fluoro-4-[2-[(E)-3-[4-(trifluoromethoxy)phenyl]prop-2-enoyl]-1,3,4,6-tetrahydropyrrolo[3,4-c]pyrrole-5-carbonyl]benzenesulfonamide]
2 | – | – | 6 nM | 1 nM | Cc1cnn(Cc2cc(C(F)(F)F)ccc2CCC(=O)N2CC3=C(C2)CN(C(=O)c2ccc(S(N)(=O)=O)cc2F)C3)n1 [Example 3.08, 3-fluoro-4-[2-[3-[2-[(4-methyltriazol-2-yl)methyl]-4-(trifluoromethyl)phenyl]propanoyl]-1,3,4,6-tetrahydropyrrolo[3,4-c]pyrrole-5-carbonyl]benzenesulfonamide]
3 | – | – | 9 nM | 4 nM | NS(=O)(=O)c1ccc(C(=O)N2CC3=C(CN(C(=O)COc4ccc(OC(F)(F)F)cc4)C3)C2)c(F)c1 [Example 3.05, 3-fluoro-4-[2-[2-[4-(trifluoromethoxy)phenoxy]acetyl]-1,3,4,6-tetrahydropyrrolo[3,4-c]pyrrole-5-carbonyl]benzenesulfonamide]
4 | 3.8 nM | 10 nM | – | – | Cc1nnn(Cc2cc(C(F)(F)F)ccc2CCC(=O)N2CC3=C(C2)CN(C(=O)c2ncc(S(N)(=O)=O)cc2F)C3)n1 [Example 4.00, 5-fluoro-6-[2-[3-[2-[(5-methyltetrazol-2-yl)methyl]-4-(trifluoromethyl)phenyl]propanoyl]-1,3,4,6-tetrahydropyrrolo[3,4-c]pyrrole-5-carbonyl]pyridine-3-sulfonamide]
5 | – | – | 17 nM | 7 nM | NS(=O)(=O)c1ccc(C(=O)N2CC3=C(CN(C(=O)COc4ccc(OC(F)(F)F)cc4)C3)C2)nc1 [Example 3.04, 6-[2-[2-[4-(trifluoromethoxy)phenoxy]acetyl]-1,3,4,6-tetrahydropyrrolo[3,4-c]pyrrole-5-carbonyl]pyridine-3-sulfonamide]
6 | – | – | 11 nM | 1 nM | Cc1cn(Cc2cc(C(F)(F)F)ccc2CCC(=O)N2CC3=C(C2)CN(C(=O)c2ccc(S(N)(=O)=O)cc2F)C3)nn1 [Example 3.09, 3-fluoro-4-[2-[3-[2-[(4-methyltriazol-1-yl)methyl]-4-(trifluoromethyl)phenyl]propanoyl]-1,3,4,6-tetrahydropyrrolo[3,4-c]pyrrole-5-carbonyl]benzenesulfonamide]

The next lines start with the compound.

Row | Structure (SMILES) | IC50 [1, 2] | IC50 (human ATX; [3]) | IC50 [1] | IC50 (human ATX)
7 | CC(C)(C)C(=O)Nc1cc(Cl)cnc1COC(=O)N1CC2=C(C1)CN(C(=O)c1c(F)cc(S(N)(=O)=O)cc1F)C2 [Example 1.15, [5-chloro-3-(2,2-dimethylpropanoylamino)pyridin-2-yl]methyl 2-(2,6-difluoro-4-sulfamoylbenzoyl)-1,3,4,6-tetrahydropyrrolo[3,4-c]pyrrole-5-carboxylate] | 12.9 nM | 8 nM | – | –
8 | NS(=O)(=O)c1ccc(C(=O)N2CC3=C(CN(C(=O)OCc4ccc(OC(F)(F)F)cc4)C3)C2)cc1 [Example 1.06, 4-(trifluoromethoxy)benzyl 5-(4-sulfamoylbenzoyl)-3,4,5,6-tetrahydropyrrolo[3,4-c]pyrrole-2(1H)-carboxylate] | – | – | 10 nM | 5 nM
9 | CC(C)(C)C(=O)Nc1cc(Cl)c(Cl)nc1COC(=O)N1CC2=C(C1)CN(C(=O)c1c(F)cc(S(N)(=O)=O)cc1F)C2 [Example 1.31, [5,6-dichloro-3-(2,2-dimethylpropanoylamino)pyridin-2-yl]methyl 2-(2,6-difluoro-4-sulfamoylbenzoyl)-1,3,4,6-tetrahydropyrrolo[3,4-c]pyrrole-5-carboxylate] | – | – | 11.5 nM | 10 nM
10 | CC(C)(C)C(=O)Nc1cc(C(F)(F)F)cnc1COC(=O)N1CC2=C(C1)CN(C(=O)c1ccc(S(N)(=O)=O)cc1)C2 [Example 1.00, [3-(2,2-Dimethylpropanoylamino)-5-(trifluoromethyl)pyridin-2-yl]methyl 2-(4-sulfamoylbenzoyl)-1,3,4,6-tetrahydropyrrolo[3,4-c]pyrrole-5-carboxylate] | 14 nM | 6 nM | – | –
11 | NS(=O)(=O)c1ccc(C(=O)N2CCC3=C(CCN(C(=O)OCc4ccc(OC(F)(F)F)cc4)C3)C2)c(F)c1 [Example 2.01, [4-(trifluoromethoxy)phenyl]methyl 6-(2-fluoro-4-sulfamoylbenzoyl)-1,3,4,5,7,8-hexahydro-2,6-naphthyridine-2-carboxylate] | – | – | 18 nM | 14 nM
12 | NS(=O)(=O)c1ccc(C(=O)N2CC3=C(CN(C(=O)c4cc(OCC5CCOCC5)nc(C5CC5)c4)C3)C2)c(F)c1 [Example 1.08, 4-[5-[2-cyclopropyl-6-(oxan-4-ylmethoxy)pyridine-4-carbonyl]-1,3,4,6-tetrahydropyrrolo[3,4-c]pyrrole-2-carbonyl]-3-fluorobenzenesulfonamide] | 6 nM | 8 nM | – | –
13 | CC(C)(C)C(=O)Nc1cc(C(F)(F)F)cnc1COC(=O)N1CC2=C(C1)CN(C(=O)c1ccc(S(N)(=O)=O)c(Cl)c1)C2 [Example 1.02, [3-(2,2-dimethylpropanoylamino)-5-(trifluoromethyl)pyridin-2-yl]methyl 2-(3-chloro-4-sulfamoylbenzoyl)-1,3,4,6-tetrahydropyrrolo[3,4-c]pyrrole-5-carboxylate] | 10 nM | 5 nM | – | –
14 | CC(C)(C)C(=O)Nc1cc(Cl)c(Cl)nc1COC(=O)N1CC2=C(C1)CN(C(=O)c1ccc(S(N)(=O)=O)c(F)c1F)C2 [Example 1.30, [5,6-dichloro-3-(2,2-dimethylpropanoylamino)pyridin-2-yl]methyl 2-(2,3-difluoro-4-sulfamoylbenzoyl)-1,3,4,6-tetrahydropyrrolo[3,4-c]pyrrole-5-carboxylate] | – | – | 4.2 nM | 10 nM
15 | CC(C)(C)C(=O)Nc1ccc(Cl)nc1COC(=O)N1CC2=C(C1)CN(C(=O)c1ccc(S(N)(=O)=O)cc1F)C2 [Example 1.18, [6-chloro-3-(2,2-dimethylpropanoylamino)pyridin-2-yl]methyl 2-(2-fluoro-4-sulfamoylbenzoyl)-1,3,4,6-tetrahydropyrrolo[3,4-c]pyrrole-5-carboxylate] | 1 nM | 2 nM | – | –
16 | NS(=O)(=O)c1ccc(C(=O)N2CC3=C(CN(C(=O)OCc4ccc(OC(F)(F)F)cc4)C3)C2)c(F)c1 [Example 2.03, [4-(trifluoromethoxy)phenyl]methyl 2-(2-fluoro-4-sulfamoylbenzoyl)-1,3,4,6-tetrahydropyrrolo[3,4-c]pyrrole-5-carboxylate] | – | – | 6 nM | 2 nM
17 | CC(C)(C)C(=O)Nc1cc(Cl)cnc1COC(=O)N1CC2=C(C1)CN(C(=O)c1cc(F)c(S(N)(=O)=O)cc1F)C2 [Example 1.16, [5-chloro-3-(2,2-dimethylpropanoylamino)pyridin-2-yl]methyl 2-(2,5-difluoro-4-sulfamoylbenzoyl)-1,3,4,6-tetrahydropyrrolo[3,4-c]pyrrole-5-carboxylate] | 10.2 nM | 9 nM | – | –
18 | CN1CCC(COc2cc(C(=O)N3CC4=C(C3)CN(C(=O)c3ccc(S(N)(=O)=O)c(F)c3F)C4)cc(C3CC3)n2)CC1 [Example 1.34, 4-[5-[2-cyclopropyl-6-[(1-methylpiperidin-4-yl)methoxy]pyridine-4-carbonyl]-1,3,4,6-tetrahydropyrrolo[3,4-c]pyrrole-2-carbonyl]-2,3-difluorobenzenesulfonamide] | – | – | 1 nM | 12 nM
